Assay [1] has as its target T1, Saccharomyces cerevisiae invertase (Saccharomyces cerevisiae, UniProt P00724).
T1 sequence (P00724 20-532): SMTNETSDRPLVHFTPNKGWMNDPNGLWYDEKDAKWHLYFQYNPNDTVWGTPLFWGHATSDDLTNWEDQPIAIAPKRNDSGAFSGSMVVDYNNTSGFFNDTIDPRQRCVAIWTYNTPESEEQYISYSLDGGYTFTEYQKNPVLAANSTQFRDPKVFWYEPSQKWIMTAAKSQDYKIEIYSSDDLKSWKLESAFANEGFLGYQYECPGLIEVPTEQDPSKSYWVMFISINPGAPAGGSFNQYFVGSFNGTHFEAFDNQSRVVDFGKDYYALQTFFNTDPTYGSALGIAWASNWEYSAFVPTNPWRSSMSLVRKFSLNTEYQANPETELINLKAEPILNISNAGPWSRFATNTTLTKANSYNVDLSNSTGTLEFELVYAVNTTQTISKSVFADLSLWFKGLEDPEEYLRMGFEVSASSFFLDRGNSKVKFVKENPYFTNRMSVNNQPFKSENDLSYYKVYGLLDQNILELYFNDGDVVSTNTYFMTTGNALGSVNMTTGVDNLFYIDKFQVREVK
The conditions noted are these: cited from earlier work; for Activity of S. cerevisiae invertase with the oligosaccharide as substrate: Sainz-Polo et al. 2013; for Activity: substrate hydrolysed by S. cerevisiae invertase, Sainz-Polo et al., 2013.

The conditions of assay [2]: cited from earlier work.
Assay [3] in a line: Sucrose inhibition assay of 1-kestose hydrolysis by partially purified recombinant 1-FEH targets (HPAEC-PAD, fructose released). The format is biochemical. The conditions noted are these: 380 mM sucrose; 10 mM 1-kestose, 1 hour, 30° C., pH6.0. As to the method:
The enzymes A, B, C and D were expressed in Pichia pastoris KM71H strain with a fusion GFP protein at C-terminal in 300 mL of culture media. After 48-hour induction with 0.5% (v/v) […] of methanol, the recombinant proteins were partially purified by precipitation with ammonium sulphate at 70% of saturation, followed by solubilization with sodium phosphate buffer 50 mM pH6.0. The partially purified proteins were concentrated and analyzed by SDS-PAGE and blue-light transluminator for GFP fluorescence. The enzymatic activity assays of the partially purified enzymes were evaluated using 10 mM 1-kestose as substrate, 50 uL of enzyme and sucrose as inhibitor ranging from zero to 380 mM, in a 100 μL-reaction buffered with sodium phosphate 50 mM pH6.0. The reactions were carried for 1 hour at 30° C. and stopped by heating at 95° C. for 5 minutes. The reactions were than diluted to 4 mL with ultrapure water and analyzed high-pressure anion-exchange chromatography with pulsed amperometric detection (HPAEC-PAD, Dionex, Sunnyvale, Calif., USA). Enzyme relative activity was determined by the amount of fructose released.
After identifying that the chosen targets are active against 1-kestose but not sucrose, we performed sucrose inhibition studies in which the amount of enzyme and substrate were fixed and increasing concentrations of sucrose were added to the reaction. […]

[4] abbreviates: 10 mM sucrose, Verhaest et al., 2007.

For Inulin, in assay [1], the “Activity of S. cerevisiae invertase with the oligosaccharide as substrate” value (“Activity of S. cerevisiae invertase” below) is “No significant activity” and the Activity is 2.5 ± 0.1 µmol/min/mg.

As to `OC[C@H]1O[C@@](CO)(OC[C@@]2(OC[C@@]3(O[C@H]4O[C@H](CO)[C@@H](O)[C@H](O)[C@H]4O)O[C@H](CO)[C@@H](O)[C@@H]3O)O[C@H](CO)[C@@H](O)[C@@H]2O)[C@@H](O)[C@@H]1O` [Nystose], in assay [1], the “Activity of S. cerevisiae invertase” value is “hydrolyzed at a much lower rate” and the Activity was 36 ± 1 µmol/min/mg.

Turning to `OC[C@H]1O[C@@](CO)(OC[C@@]2(O[C@H]3O[C@H](CO)[C@@H](O)[C@H](O)[C@H]3O)O[C@H](CO)[C@@H](O)[C@@H]2O)[C@@H](O)[C@@H]1O` [1-Kestose, β-D-fructofuranosyl-(2→1)-β-D-fructofuranosyl α-D-glucopyranoside], the Activity in assay [1] was 102 ± 11 µmol/min/mg.

Regarding `OC[C@H]1O[C@@](CO)(O[C@H]2O[C@H](CO)[C@@H](O)[C@H](O)[C@H]2O)[C@@H](O)[C@@H]1O` [Sucrose, sucrose], in assay [1], the “Activity of S. cerevisiae invertase” value is reported as “highest efficiency” and the Activity was 520 ± 20 µmol/min/mg.

For `OC[C@H]1O[C@H](OC[C@H]2O[C@H](O[C@]3(CO)O[C@H](CO)[C@@H](O)[C@@H]3O)[C@H](O)[C@@H](O)[C@@H]2O)[C@H](O)[C@@H](O)[C@H]1O` [Raffinose], in assay [1], the Activity was 187 ± 8 µmol/min/mg.

B1: enzyme D: Cichorium intybus 1-FEH IIa with W82 homologue replaced by leucine; also reported by Verhaest et al. 2007 (protein)
chain: QQIEQPYRTGYHFQPPSNWMNDPNGPMLYQGVYHFFYQYNPYAATFGDVIIWGHAVSYDLVNWIHLDPAIYPTQEADSKSCLSGSATILPGNIPAMLYTGSDSKSRQVQDLAWPKNLSDPFLREWVKHPKNPLITPPEGVKDDCFRDPSTAWLGPDGVWRIVVGGDRDNNGMAFLYQSTDFVNWKRYDQPLSSADATGTWECPDFYPVPLNSTNGLDTSVYGGSVRHVMKAGFEGHDWYTIGTYSPDRENFLPQNGLSLTGSTLDLRYDYGQFYASKSFFDDAKNRRVLWAWVPETDSQADDIEKGWAGLQSFPRALWIDRNGKQLIQWPVEEIEELRQNQVNLQNKNLKPGSVLEIHGIAASQADVTISFKLEGLKEAEVLDTTLVDPQALCNERGASSRGALGPFGLLAMASKDLKEQSAIFFRVFQNQLGRYSVLMCSDLSRSTVRSNIDTTSYGAFVDIDPRSEEISLRNLIDHSIIESFGAGGKTCITSRIYPKFVNNEEAHLFVFNNGTQNVKISEMSAWSMKNAKFVVDQSVKSAA
modifications: Fructan 1-exohydrolase precursor (W120L)
Regarding B1, in assay [2] (setting [4]), the “inhibition by sucrose (text)” value is given as 0% and the “inhibition by sucrose (words)” value was “no longer inhibited”. Further, the “% inhibition by sucrose” value in assay [2] (10 mM sucrose) is 0% with 10 mM. For the same molecule, in assay [2] (Weak / Strong, Table 3), the Sucrose inhibition result is on record as “Weak”. Besides, the “inhibition by sucrose as described in the literature” value in assay [2] (no sucrose concentration stated) was “strongly inhibited”. Also, the inhibition by sucrose in assay [3] amounted to 52%.

Values taken from patent US11306337B2, “Polypeptides having hydrolytic activity on 1-kestose in the presence of sucrose but lacking sucrase (invertase) activity, polynucleotides encoding same and methods of producting and using same in industrial sucrose production from 1-kestose” (CTC—Centro de Tecnologia Canavieira S.A., priority 2015, dated 2022).
